Experimental findings from US9440957B2, “Compounds and compositions for modulating EGFR Activity” (Novartis AG, priority 2012, dated 2016) are described below.

In one assay the target is T1, EGFR(L858R/T790M) (Homo sapiens, UniProt P00533, L858R/T790M).
T1 construct: purchased from Carna (GST-a.a. 669-1210)
Nature of the assay: EGFR biochemical assay (HTRF), IC50 determinations. In short, it runs like this:
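HTRF kinase reaction with biotin-TK peptide at room temperature, quenched with EDTA at 60 min and detected with PT66K/SAXL after 1 h. Without preincubation, enzyme starts the reaction with compound, ATP and peptide present. With preincubation, compound, enzyme and peptide sit at room temperature for a set time before ATP is added.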

The target of a further assay is H1975 (EGFR L858/T790M) (Homo sapiens, UniProt P00533, L858R/T790M). Nature of the assay: EGFR target modulation in H1975 cell line (phospho-EGFR Y1173 ELISA). The assay is classed as cell-based. In short, it runs like this:
(§1)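 Cells grown in 10% FBS/RPMI, plated overnight at 37 °C, then treated with serially diluted compounds for 3 h. Lysates were analysed by sandwich ELISA (anti-EGFR capture, chemiluminescent readout).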

The target of the next assay is H3255 (EGFR L858R) (Homo sapiens, UniProt P00533, L858R). As to the kind of experiment: EGFR target modulation in H3255 cell line (phospho-EGFR Y1173 ELISA). Format: cell-based. In short, it runs like this:
as §1

The target of another assay is HCC827 (Del E746-A750) (Homo sapiens, UniProt P00533, DEL746-750). Nature of the assay: EGFR target modulation in HCC827 cell line (phospho-EGFR Y1173 ELISA). The assay is classed as cell-based. The procedure, abridged:
as §1

In a further assay the target is HEKn (EGFR WT) (Homo sapiens, UniProt P00533). As to the kind of experiment: EGFR target modulation in HEKn (EGFR-WT) cell line (phospho-EGFR Y1173 ELISA). The assay is classed as cell-based. As to conditions: value outside parentheses. In short, it runs like this: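 Primary neonatal human keratinocytes (EGFR WT) were exposed to serially diluted compounds for 3 h, then lysed on ice. Phospho-EGFR Y1173 was measured by chemiluminescent sandwich ELISA using anti-EGFR capture.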

A further assay has as its target HaCaT (EGFR WT) (Homo sapiens, UniProt P00533). As to the kind of experiment: EGFR target modulation in HaCaT (EGFR-WT) cell line (phospho-EGFR Y1173 ELISA). The assay is classed as cell-based. The following applies: value in parentheses. As to the method:
EGFR Target Modulation in HaCaT (EGFR-WT) Cell Line Tissue Culture. […] The serial diluted compounds were transferred to the plate containing cells by using a 50 nl Pin Head device (Perkin Elmer) and the cells were placed back in the incubator for 3 hours. […] Phospho-EGFR ([…]) ELISA. Solid white high-binding ELISA plates (Greiner #781074) were coated with 5 ug/ml anti-EGFR capture antibody (R&D Systems #AF231) overnight in 50 mM carbonate/bicarbonate pH 9.5 buffer. […] Wash steps were carried out with a Bio-Tek ELx405 SelectTM using 4 cycles of 100 ul TBS-T (20 mM Tris, 137 mM NaCl, 0.05% Tween-20) per well. […] Lysis was allowed to occur for 20 minutes on ice. A 25 ul aliquot was added to each well of the blocked ELISA plate and incubated overnight at 4° C. with gentle shaking. […] After washing, 1:2,000 anti-rabbit-HRP (Cell Signaling #7074) in 0.2% BSA/TBS-T was added and incubated for 1 hour at room temperature. Chemiluminescent detection was carried out with SuperSignal ELISA Pico substrate (ThermoScientific #37069). Signal was read on EnVision plate reader using built-in UltraLUM setting. Data Analysis. Control cells treated with EGF were set to 100% maximum response. […] With these parameters, the IC50's for each compound in each cell line was calculated using non-linear curve fitting analysis.

[1] abbreviates: EGFR (L858R/T790M) with 90 min pre-incubation, read-out: IC50 (μM) Column B.
[2] abbreviates: EGFR (L858R/T790M) with no pre-incubation, read-out: IC50 (μM) Column A.

Each structure is given as a SMILES string. Where two headings read alike, the source gives them in different places.

H3255 (EGFR L858R), sequence (P00533 25-1210 L858R): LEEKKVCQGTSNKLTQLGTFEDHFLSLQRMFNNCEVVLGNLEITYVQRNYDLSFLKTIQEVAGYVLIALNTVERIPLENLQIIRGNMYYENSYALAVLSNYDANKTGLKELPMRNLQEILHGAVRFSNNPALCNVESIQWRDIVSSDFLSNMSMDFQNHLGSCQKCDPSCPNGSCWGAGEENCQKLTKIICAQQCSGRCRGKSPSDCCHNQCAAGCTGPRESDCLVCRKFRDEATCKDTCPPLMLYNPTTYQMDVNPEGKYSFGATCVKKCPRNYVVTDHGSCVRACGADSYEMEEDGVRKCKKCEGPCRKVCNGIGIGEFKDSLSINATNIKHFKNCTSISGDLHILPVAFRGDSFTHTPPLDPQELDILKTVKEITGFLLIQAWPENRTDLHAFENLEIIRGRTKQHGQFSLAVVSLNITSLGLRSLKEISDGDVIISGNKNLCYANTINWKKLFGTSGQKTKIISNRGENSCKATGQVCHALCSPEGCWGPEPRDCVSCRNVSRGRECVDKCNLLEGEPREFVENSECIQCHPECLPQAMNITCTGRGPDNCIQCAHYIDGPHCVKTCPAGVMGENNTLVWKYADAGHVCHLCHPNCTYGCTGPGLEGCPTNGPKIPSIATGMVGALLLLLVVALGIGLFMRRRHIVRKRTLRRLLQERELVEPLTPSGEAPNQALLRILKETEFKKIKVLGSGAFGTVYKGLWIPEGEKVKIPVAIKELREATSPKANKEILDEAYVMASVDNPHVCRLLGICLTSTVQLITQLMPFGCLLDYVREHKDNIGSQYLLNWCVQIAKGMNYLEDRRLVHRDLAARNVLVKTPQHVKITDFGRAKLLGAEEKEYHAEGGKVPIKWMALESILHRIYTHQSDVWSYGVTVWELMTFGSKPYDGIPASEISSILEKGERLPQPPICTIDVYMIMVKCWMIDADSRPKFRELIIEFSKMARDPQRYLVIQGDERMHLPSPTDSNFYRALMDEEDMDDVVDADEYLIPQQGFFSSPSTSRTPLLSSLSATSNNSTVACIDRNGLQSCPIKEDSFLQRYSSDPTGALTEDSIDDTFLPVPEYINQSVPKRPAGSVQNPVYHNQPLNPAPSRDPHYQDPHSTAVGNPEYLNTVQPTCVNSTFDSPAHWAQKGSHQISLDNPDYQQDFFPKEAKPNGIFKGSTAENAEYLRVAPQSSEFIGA
T1 sequence (P00533 669-1210 T790M/L858R): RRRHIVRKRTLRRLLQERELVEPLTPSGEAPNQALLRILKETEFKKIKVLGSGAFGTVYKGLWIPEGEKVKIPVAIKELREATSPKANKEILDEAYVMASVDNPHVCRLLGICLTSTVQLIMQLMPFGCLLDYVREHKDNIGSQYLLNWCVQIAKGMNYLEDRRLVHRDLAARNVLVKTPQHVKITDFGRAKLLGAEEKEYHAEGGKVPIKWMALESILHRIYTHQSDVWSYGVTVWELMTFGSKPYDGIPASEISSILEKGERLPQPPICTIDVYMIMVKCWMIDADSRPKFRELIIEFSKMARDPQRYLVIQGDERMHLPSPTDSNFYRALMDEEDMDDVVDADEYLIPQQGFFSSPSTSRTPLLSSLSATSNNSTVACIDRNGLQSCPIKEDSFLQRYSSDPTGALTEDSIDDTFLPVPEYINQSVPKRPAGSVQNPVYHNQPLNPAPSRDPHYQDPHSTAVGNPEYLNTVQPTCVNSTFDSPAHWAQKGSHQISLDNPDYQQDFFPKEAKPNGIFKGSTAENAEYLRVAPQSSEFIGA
HCC827 (Del E746-A750), sequence (P00533 with tags, fused parts or gaps DEL746-750): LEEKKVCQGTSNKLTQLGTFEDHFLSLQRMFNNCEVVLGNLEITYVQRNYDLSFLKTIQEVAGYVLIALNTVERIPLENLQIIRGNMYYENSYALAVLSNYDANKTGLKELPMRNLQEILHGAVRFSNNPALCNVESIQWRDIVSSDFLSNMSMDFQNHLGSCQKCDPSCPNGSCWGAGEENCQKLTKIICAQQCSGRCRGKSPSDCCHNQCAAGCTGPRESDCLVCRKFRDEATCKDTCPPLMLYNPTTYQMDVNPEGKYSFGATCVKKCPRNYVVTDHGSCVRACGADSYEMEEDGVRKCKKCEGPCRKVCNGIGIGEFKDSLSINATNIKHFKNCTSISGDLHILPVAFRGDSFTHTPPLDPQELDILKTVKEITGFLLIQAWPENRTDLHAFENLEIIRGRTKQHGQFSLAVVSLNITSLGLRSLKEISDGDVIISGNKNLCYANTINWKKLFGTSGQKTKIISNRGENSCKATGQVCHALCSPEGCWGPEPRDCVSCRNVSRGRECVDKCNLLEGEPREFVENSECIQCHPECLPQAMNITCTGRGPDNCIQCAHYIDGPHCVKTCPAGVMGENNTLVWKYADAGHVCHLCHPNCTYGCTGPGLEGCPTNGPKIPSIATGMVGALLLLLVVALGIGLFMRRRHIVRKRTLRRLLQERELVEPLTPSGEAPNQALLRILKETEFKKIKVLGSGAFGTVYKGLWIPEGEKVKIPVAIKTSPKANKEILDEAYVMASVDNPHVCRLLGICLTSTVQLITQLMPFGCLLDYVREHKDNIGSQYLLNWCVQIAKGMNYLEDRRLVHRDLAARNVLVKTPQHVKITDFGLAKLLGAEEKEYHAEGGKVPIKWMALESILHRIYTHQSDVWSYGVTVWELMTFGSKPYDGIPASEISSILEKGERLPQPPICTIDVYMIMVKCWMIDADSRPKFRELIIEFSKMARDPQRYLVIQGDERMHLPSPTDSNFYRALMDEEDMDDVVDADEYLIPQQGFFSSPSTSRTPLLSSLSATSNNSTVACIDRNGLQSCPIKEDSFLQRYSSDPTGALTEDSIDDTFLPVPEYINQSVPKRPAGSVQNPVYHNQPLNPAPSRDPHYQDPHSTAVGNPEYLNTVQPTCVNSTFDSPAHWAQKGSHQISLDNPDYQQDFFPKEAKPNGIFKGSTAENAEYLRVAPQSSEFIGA
HaCaT (EGFR WT), sequence (P00533 25-1210): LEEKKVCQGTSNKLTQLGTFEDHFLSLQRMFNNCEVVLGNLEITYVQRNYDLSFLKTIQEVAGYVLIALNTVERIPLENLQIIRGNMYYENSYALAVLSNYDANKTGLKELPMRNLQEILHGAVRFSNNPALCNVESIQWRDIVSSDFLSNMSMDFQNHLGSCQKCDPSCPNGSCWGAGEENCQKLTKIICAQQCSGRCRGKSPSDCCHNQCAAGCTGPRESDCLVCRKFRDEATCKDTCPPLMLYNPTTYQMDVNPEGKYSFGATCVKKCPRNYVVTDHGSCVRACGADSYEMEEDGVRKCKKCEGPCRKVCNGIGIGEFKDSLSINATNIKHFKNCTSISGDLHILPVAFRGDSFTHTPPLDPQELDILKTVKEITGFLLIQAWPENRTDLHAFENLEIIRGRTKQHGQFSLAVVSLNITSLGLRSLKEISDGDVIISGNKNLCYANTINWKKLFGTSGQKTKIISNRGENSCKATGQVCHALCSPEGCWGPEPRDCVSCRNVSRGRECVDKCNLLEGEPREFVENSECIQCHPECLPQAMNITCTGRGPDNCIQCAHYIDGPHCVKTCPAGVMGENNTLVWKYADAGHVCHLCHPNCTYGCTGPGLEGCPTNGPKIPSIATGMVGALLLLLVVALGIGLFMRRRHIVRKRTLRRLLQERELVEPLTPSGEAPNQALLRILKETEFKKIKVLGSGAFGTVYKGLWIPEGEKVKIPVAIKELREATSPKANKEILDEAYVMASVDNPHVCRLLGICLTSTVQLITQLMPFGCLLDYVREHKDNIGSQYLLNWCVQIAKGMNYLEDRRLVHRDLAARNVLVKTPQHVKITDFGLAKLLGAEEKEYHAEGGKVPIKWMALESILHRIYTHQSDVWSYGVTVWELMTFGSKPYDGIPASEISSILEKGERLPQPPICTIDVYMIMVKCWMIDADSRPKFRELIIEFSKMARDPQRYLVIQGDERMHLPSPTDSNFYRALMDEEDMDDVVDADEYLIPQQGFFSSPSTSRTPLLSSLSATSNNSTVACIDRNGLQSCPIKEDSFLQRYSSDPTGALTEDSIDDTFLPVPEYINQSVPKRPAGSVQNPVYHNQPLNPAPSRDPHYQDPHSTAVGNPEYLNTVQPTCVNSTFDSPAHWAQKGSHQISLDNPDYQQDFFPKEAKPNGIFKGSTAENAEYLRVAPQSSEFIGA

In the case of `CNC/C=C/C(=O)N1CCCC[C@@H](n2c(NC(=O)c3cc(C)nc(C)c3)nc3cccc(Cl)c32)C1` [Example 17-186], the IC50 was less than 0.001 µM on EGFR(L858R/T790M) (setting [1]); 0.004 µM on EGFR(L858R/T790M) (setting [2]); 2 nM on H1975 (EGFR L858/T790M); 10 nM against H3255 (EGFR L858R); 2 nM on HCC827 (Del E746-A750); 291 nM at HEKn (EGFR WT). Also, at HaCaT (EGFR WT), the IC50 stood at 213 nM.
As to `CNC/C=C/C(=O)N1CCCC[C@@H](n2c(NC(=O)c3ccnc(C)c3)nc3cccc(Cl)c32)C1` [Example 17-185], the IC50 at EGFR(L858R/T790M) (setting [1]) is less than 0.001 µM; at EGFR(L858R/T790M) (setting [2]), 0.002 µM; against H1975 (EGFR L858/T790M) it was 1 nM; against H3255 (EGFR L858R), 2 nM; against HCC827 (Del E746-A750) it was 1 nM; on HEKn (EGFR WT), 44 nM. The IC50 at HaCaT (EGFR WT) was 44 nM.
`C=CC(=O)N1CCCC[C@@H](n2c(NC(=O)c3cc(C)nc(C)c3)nc3cc(CN4CCN(C)C(=O)C4)cc(C)c32)C1` [Example 17-180]: the IC50 at EGFR(L858R/T790M) (setting [1]) is less than 0.001 µM; at EGFR(L858R/T790M) (setting [2]), 0.003 µM; on H1975 (EGFR L858/T790M), 1 nM; at H3255 (EGFR L858R), 1 nM; against HCC827 (Del E746-A750), 1 nM; at HaCaT (EGFR WT), 92 nM.
For `C=CC(=O)N1CCCC[C@@H](n2c(NC(=O)c3cc(C)nc(C)c3)nc3cc(CN4CCN(C(C)=O)CC4)cc(C)c32)C1` [Example 17-181], the IC50 at EGFR(L858R/T790M) (setting [1]) is less than 0.001 µM; on EGFR(L858R/T790M) (setting [2]), 0.003 µM; against H1975 (EGFR L858/T790M), 1 nM; at H3255 (EGFR L858R), 1 nM; against HCC827 (Del E746-A750), 1 nM; at HaCaT (EGFR WT) it was 77 nM.
